Reference: patent publication US20200017495A1, “NOVEL HETEROCYCLIC COMPOUNDS AND THEIR USE IN PREVENTING OR TREATING BACTERIAL INFECTIONS” (priority 2017, published 2020)

Columns and labels:
Assay in all cases: MIC of compounds alone and combined with antibacterials, broth microdilution (CLSI)
Type in all cases: cell-based
[1] = tested on: Citrobacter freundii (CFR) isolates
Summary of the method: (§1)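 Log-phase isolates were inoculated at a final 5.10^5 CFU/mL in cation-adjusted Mueller-Hinton broth and incubated 16-20 h at 35° C in ambient air. MIC was the lowest concentration preventing visible growth; for combinations, the antibacterial MIC was read at each compound concentration.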

[2] = tested on: Providencia rettgeri (PRE) isolates
Summary of the method: as §1

[3] = tested on: Serratia marcescens (SMA) isolates
Summary of the method: as §1

## CC(C)(O/N=C(\C(=O)N[C@@H]1C(=O)N2C(C(=O)[O-])=C(C[n+]3ccccc3)CS[C@H]12)c1csc(N)n1)C(=O)O [CAZ, Ceftazidime]
[1]; CFR UFR10, AF2 @ 8 μg/mL
  MIC ATB in combination: <=0.25 μg/mL
[1]; CFR UFR10, AF3 @ 8 μg/mL
  MIC ATB in combination: <0.25 µg/mL
[1]; CFR UFR11, AF2 @ 8 μg/mL
  MIC ATB in combination: 8 µg/mL
[1]; CFR UFR11, AF3 @ 8 μg/mL
  MIC ATB in combination: 4 µg/mL
[1]; CFR UFR37, AF2 @ 8 μg/mL
  MIC ATB in combination: 8 µg/mL
[1]; CFR UFR37, AF3 @ 8 μg/mL
  MIC ATB in combination: <0.25 µg/mL
[1]; CFR UFR83, AF2 @ 8 μg/mL
  MIC ATB in combination: >128 µg/mL
[1]; CFR UFR83, AF3 @ 8 μg/mL
  MIC ATB in combination: >128 µg/mL
[1]; CFR UFR146, AF2 @ 8 μg/mL
  MIC ATB in combination: 2 µg/mL
[1]; CFR UFR146, AF3 @ 8 μg/mL
  MIC ATB in combination: 1 µg/mL
[1]; CFR UFR248, AF2 @ 8 μg/mL
  MIC ATB in combination: <0.25 µg/mL
[1]; CFR UFR248, AF3 @ 8 μg/mL
  MIC ATB in combination: <0.25 µg/mL
[1]; CFR UFR249, AF2 @ 8 μg/mL
  MIC ATB in combination: <=0.25 μg/mL
[1]; CFR UFR249, AF3 @ 8 μg/mL
  MIC ATB in combination: <0.25 µg/mL
[1]; CFR UFR250, AF2 @ 8 μg/mL
  MIC ATB in combination: <=0.25 μg/mL
[1]; CFR UFR250, AF3 @ 8 μg/mL
  MIC ATB in combination: <0.25 µg/mL
[1]; strain CFR UFR11, genotype TEM-1, OXA-1, OXA-48
  MIC: 8 µg/mL
[1]; strain CFR UFR37, genotype TEM-1, CTX-M-15, NDM-1
  MIC: >128 µg/mL
[1]; strain CFR UFR83, genotype TEM-3, AmpC
  MIC: >128 µg/mL
[1]; strain CFR UFR146, genotype TEM-1, KPC-2
  MIC: 32 µg/mL
[1]; strain CFR UFR147, genotype TEM-1, CTX-M-15, OXA-1, OXA-181, OXA-10, OXA-9, NDM-1, ArmA, dfrA12, aadA2, antibiotic alone
  MIC: >128 µg/mL
[1]; strain CFR UFR147, with AF2 @ 8 μg/mL
  MIC ATB in combination: <0.25 µg/mL
[1]; strain CFR UFR147, with AF3 @ 8 μg/mL
  MIC ATB in combination: <0.25 µg/mL
[1]; strain CFR UFR148, genotype TEM-1, TEM-2, CTX-M-15, NDM-1, antibiotic alone
  MIC: >128 µg/mL
[1]; strain CFR UFR148, with AF2 @ 8 μg/mL
  MIC ATB in combination: <0.25 µg/mL
[1]; strain CFR UFR148, with AF3 @ 8 μg/mL
  MIC ATB in combination: <0.25 µg/mL
[1]; strain CFR UFR249, genotype TEM-1, CTX-M-15
  MIC: 64 µg/mL
[1]; strain CFR UFR251, with AF2 @ 8 μg/mL
  MIC ATB in combination: 0.5 µg/mL
[1]; strain CFR UFR251, with AF3 @ 8 μg/mL
  MIC ATB in combination: <0.25 µg/mL
[1]; strain CFR UFR252, genotype VIM-2, antibiotic alone
  MIC: 64 µg/mL
[1]; strain CFR UFR252, with AF2 @ 8 μg/mL
  MIC ATB in combination: 8 µg/mL
[1]; strain CFR UFR252, with AF3 @ 8 μg/mL
  MIC ATB in combination: 16 µg/mL
[1]; strain CFR UFR253, genotype TEM-1, SHV-12, OXA-48
  MIC: >128 µg/mL
[1]; strain CFR UFR253, with AF2 @ 8 μg/mL
  MIC ATB in combination: 8 µg/mL
[1]; strain CFR UFR253, with AF3 @ 8 μg/mL
  MIC ATB in combination: 4 µg/mL
[1]; strain CFR UFR254, with AF2 @ 8 μg/mL
  MIC ATB in combination: <0.25 µg/mL
[1]; strain CFR UFR254, with AF3 @ 8 μg/mL
  MIC ATB in combination: 0.5 µg/mL
[2]; PRE UFR99, AF2 @ 8 μg/mL
  MIC ATB in combination: >128 µg/mL
[2]; PRE UFR99, AF3 @ 8 μg/mL
  MIC ATB in combination: >128 µg/mL
[2]; strain PRE UFR96, with AF2 @ 8 μg/mL
  MIC ATB in combination: <0.25 µg/mL
[2]; strain PRE UFR96, with AF3 @ 8 μg/mL
  MIC ATB in combination: <0.25 µg/mL
[2]; strain PRE UFR97, with AF2 @ 8 μg/mL
  MIC ATB in combination: >128 µg/mL
[2]; strain PRE UFR97, with AF3 @ 8 μg/mL
  MIC ATB in combination: >128 µg/mL
[2]; strain PRE UFR236, genotype TEM-1, OXA-48
  MIC: 32 µg/mL
[2]; strain PRE UFR236, with AF2 @ 8 μg/mL
  MIC ATB in combination: 0.5 µg/mL
[2]; strain PRE UFR236, with AF3 @ 8 μg/mL
  MIC ATB in combination: <=0.25 μg/mL
[3]; SMA UFR30, AF2 @ 8 μg/mL
  MIC ATB in combination: 0.5 µg/mL
[3]; SMA UFR30, AF3 @ 8 μg/mL
  MIC ATB in combination: <=0.25 μg/mL
[3]; SMA UFR134, AF2 @ 8 μg/mL
  MIC ATB in combination: <=0.25 μg/mL
[3]; SMA UFR134, AF3 @ 8 μg/mL
  MIC ATB in combination: 0.5 µg/mL
[3]; SMA UFR135, AF2 @ 8 μg/mL
  MIC ATB in combination: 2 µg/mL
[3]; SMA UFR135, AF3 @ 8 μg/mL
  MIC ATB in combination: 4 µg/mL
[3]; SMA UFR136, AF2 @ 8 μg/mL
  MIC ATB in combination: 2 µg/mL
[3]; SMA UFR136, AF3 @ 8 μg/mL
  MIC ATB in combination: 1 µg/mL
[3]; SMA UFR137, AF2 @ 8 μg/mL
  MIC ATB in combination: <=0.25 μg/mL
[3]; SMA UFR137, AF3 @ 8 μg/mL
  MIC ATB in combination: 0.5 µg/mL
[3]; SMA UFR138, AF2 @ 8 μg/mL
  MIC ATB in combination: 0.5 µg/mL
[3]; SMA UFR138, AF3 @ 8 μg/mL
  MIC ATB in combination: <=0.25 μg/mL
[3]; SMA UFR139, AF2 @ 8 μg/mL
  MIC ATB in combination: 1 µg/mL
[3]; SMA UFR139, AF3 @ 8 μg/mL
  MIC ATB in combination: <=0.25 μg/mL
[3]; SMA UFR141, AF2 @ 8 μg/mL
  MIC ATB in combination: <=0.25 μg/mL
[3]; SMA UFR141, AF3 @ 8 μg/mL
  MIC ATB in combination: 0.5 µg/mL
[3]; SMA UFR142, AF2 @ 8 μg/mL
  MIC ATB in combination: 0.5 µg/mL
[3]; SMA UFR142, AF3 @ 8 μg/mL
  MIC ATB in combination: 0.5 µg/mL
[3]; SMA UFR143, AF2 @ 8 μg/mL
  MIC ATB in combination: <=0.25 μg/mL
[3]; SMA UFR143, AF3 @ 8 μg/mL
  MIC ATB in combination: <=0.25 μg/mL
[3]; SMA UFR239, AF2 @ 8 μg/mL
  MIC ATB in combination: 4 µg/mL
[3]; SMA UFR239, AF3 @ 8 μg/mL
  MIC ATB in combination: 0.5 µg/mL
[3]; strain SMA UFR30, genotype OXA-405
  MIC: 8 µg/mL
[3]; strain SMA UFR134, genotype TEM-1, BES-1
  MIC: 8 µg/mL
[3]; strain SMA UFR135, genotype TEM-1, KPC-2
  MIC: 32 µg/mL
[3]; strain SMA UFR136, genotype TEM-1, SHV-12, KPC-2
  MIC: >256 µg/mL
[3]; strain SMA UFR137, genotype SME-1
  MIC: 0.5 µg/mL
[3]; strain SMA UFR138, genotype SME-1
  MIC: <=0.25 μg/mL
[3]; strain SMA UFR139, genotype SME-2
  MIC: <=0.25 μg/mL
[3]; strain SMA UFR140, genotype IMP-1
  MIC: >128 µg/mL
[3]; strain SMA UFR140, with AF2 @ 8 μg/mL
  MIC ATB in combination: >128 µg/mL
[3]; strain SMA UFR140, with AF3 @ 8 μg/mL
  MIC ATB in combination: >128 µg/mL
[3]; strain SMA UFR141, genotype OXA-48
  MIC: 1 µg/mL
[3]; strain SMA UFR142, genotype OXA-48
  MIC: 0.5 µg/mL
[3]; strain SMA UFR143, genotype CTX-M-15, OXA-1, OXA-48
  MIC: 64 µg/mL
[3]; strain SMA UFR238, genotype OXA-48
  MIC: 0.5 µg/mL
[3]; strain SMA UFR238, with AF2 @ 8 μg/mL
  MIC ATB in combination: 0.5 µg/mL
[3]; strain SMA UFR238, with AF3 @ 8 μg/mL
  MIC ATB in combination: <=0.25 μg/mL
[3]; strain SMA UFR239, genotype ESAC
  MIC: 32 µg/mL
